Consider 11 compounds from ChEMBL document CHEMBL1201862, “PubChem BioAssay data set” (2004).

By GI50 is commonly meant the concentration giving 50% growth inhibition.

Holding throughout (assay): DTP human tumour cell line panel, 48 h
Assay [1] relates to SN12C.
The test system of assay [2] is KM12.
For assay [3], the system named is OVCAR-4.
Assay [4] deals with LOX IMVI.
Assay [5] deals with NCI-H23.
In assay [6] the test system is MOLT-4.
Assay [7] concerns SK-OV-3.
Assay [8] relates to UACC-257.
For assay [9], the system named is SF-268.
For assay [10], the system named is SNB-75.
The subject of assay [11] is OVCAR-3.
For assay [12], the system named is NCI-H460.
Assay [13] deals with SF-539.
The test system of assay [14] is SNB-19.
Assay [15] deals with HL-60.
For assay [16], the system named is UACC-62.
The test system of assay [17] is A549.
Assay [18] deals with SF-295.
The subject of assay [19] is SW-620.
Assay [20] concerns RPMI-8226.

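The compound was tested at five concentrations on cells cultured in 96-well plates, with a 48-hour exposure period. Here, GI50 denotes the concentration required for 50% inhibition of growth.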 The source made the active and inactive calls. Cut-off read from the data, not from the text of the source: active = GI50 up to about 1.1 µM and inactive = higher.

On to `Cc1cccc(NC(N)=S)c1`, for which the GI50 in assay [1], in assay [2], in [3], in assay [4], in [5] and in assay [6] was > 100 µM (inactive) throughout. Besides, the GI50 in assay [7], in assay [8], in [9], in assay [10], in assay [11] and in [12] was > 100 µM (inactive) in each case. Moreover, the GI50 in [13], in [14], in assay [15] and in assay [16] was > 100 µM (inactive) in each case.

For `COP(=O)(OC)C(Cc1c[nH]c2ccccc12)NC(=O)OCc1ccccc1` (stereo unspecified), the GI50 was > 100 µM (inactive) in assay [17]; > 100 µM (inactive) in [1]; 91 µM (inactive) in assay [3]; > 100 µM (inactive) in [4]; > 100 µM (inactive) in assay [5]; > 100 µM (inactive) in assay [7]. Also, the GI50 is > 100 µM (inactive) in assay [8]; > 100 µM (inactive) in assay [18]; > 100 µM (inactive) in assay [10]; 40.5 µM (inactive) in assay [11]; > 100 µM (inactive) in assay [12]; > 100 µM (inactive) in assay [14]. Further, the GI50 in assay [19], in assay [20] and in [15] was > 100 µM (inactive) throughout.

In the case of `c1ccc(P2c3ccccc3Nc3ccccc32)cc1`, the GI50 was 42.5 µM (inactive) in assay [17]; 41.1 µM (inactive) in [1]; 37.2 µM (inactive) in assay [2]; 38.8 µM (inactive) in [3]; 45.8 µM (inactive) in assay [4]; 72.9 µM (inactive) in assay [5]. For the same compound, the GI50 was 24.8 µM (inactive) in assay [6]; > 100 µM (inactive) in assay [7]; 43.1 µM (inactive) in assay [8]; 59.7 µM (inactive) in [18]; 71.6 µM (inactive) in assay [9]; 11.4 µM (inactive) in assay [10]. Moreover, the GI50 was 16.3 µM (inactive) in [11]; 62.1 µM (inactive) in assay [12]; 59.8 µM (inactive) in assay [13]; 59 µM (inactive) in assay [14]; > 100 µM (inactive) in [19]; 29.1 µM (inactive) in assay [15]. Also, the GI50 in [16] is 37.8 µM (inactive).

With `COc1ccc(C2=NN(C(=O)c3ccc(Cl)cc3)C(O)(c3cc(F)c(Cl)cc3Cl)C2)cc1` (stereo unspecified), the GI50 was 49.2 µM (inactive) in assay [17]; 39.1 µM (inactive) in assay [1]; 24.5 µM (inactive) in assay [2]; 8.61 µM (inactive) in assay [3]; 77.8 µM (inactive) in assay [4]; 37.6 µM (inactive) in assay [5]. Also, the GI50 is 12.8 µM (inactive) in assay [6]; > 100 µM (inactive) in assay [7]; 49.9 µM (inactive) in assay [8]; > 100 µM (inactive) in assay [18]; > 100 µM (inactive) in assay [9]; 15 µM (inactive) in [10]. Also, the GI50 in assay [11] was > 100 µM (inactive); in assay [12] it was 56.8 µM (inactive); in assay [13], > 100 µM (inactive); in [14], > 100 µM (inactive); in assay [20] it was 22.9 µM (inactive); in assay [15], 51.5 µM (inactive). Moreover, the GI50 in assay [16] is > 100 µM (inactive).

For `O=C(O)c1c[nH]c2c(=O)[nH]cnc12`, the GI50 in assay [17], in [1], in assay [2], in [4], in assay [5] and in assay [6] was > 100 µM (inactive) in each case. In addition, the GI50 in assay [7], in assay [8], in [18], in assay [9], in assay [10] and in assay [11] was > 100 µM (inactive) each time. In addition, the GI50 in assay [14], in [19], in assay [20], in assay [15] and in assay [16] was > 100 µM (inactive) throughout.

As for `CC1=Nc2nc(Cl)cn2C(=O)C1(Cl)Cl`, the GI50 in [17], in assay [1], in assay [2], in assay [3], in assay [4] and in [5] was > 10 µM (inactive) in each case. Also, the GI50 in [6], in assay [7], in [18], in assay [9], in assay [10] and in [11] was > 10 µM (inactive) each time. Besides, the GI50 in assay [12], in assay [13], in assay [14], in assay [19], in assay [20] and in [15] was > 10 µM (inactive) throughout. In assay [16], the GI50 is > 10 µM (inactive).

For the compound `COc1ccc([C@@H]2ON(C)[C@H]3CN(C)C(=O)[C@@H]23)cc1`, the GI50 in [17], in assay [1], in [3], in assay [4], in assay [5] and in assay [6] was > 100 µM (inactive) throughout. The GI50 is > 100 µM (inactive) in assay [7]; > 100 µM (inactive) in [8]; > 100 µM (inactive) in assay [18]; 10.1 µM (inactive) in assay [10]; > 100 µM (inactive) in assay [11]; > 100 µM (inactive) in assay [12]. For the same compound, the GI50 in assay [14], in [19], in assay [20] and in assay [15] was > 100 µM (inactive) throughout.

For `CC(=O)NC(CCC(=O)C=[N+]=[N-])C(=O)O` (stereo unspecified), the GI50 in [17], in assay [1], in assay [2], in assay [3], in assay [4] and in assay [5] was > 100 µM (inactive) in each case. Further, the GI50 in [6], in assay [7], in [8], in assay [18], in assay [9] and in assay [10] was > 100 µM (inactive) throughout. Besides, the GI50 in assay [11], in assay [12], in assay [13], in assay [14], in [19] and in assay [20] was > 100 µM (inactive) each time. Moreover, the GI50 in [15] and in assay [16] was > 100 µM (inactive) in each case.

Consider `CC1[C@@]2(O[C@@H]3C=C4C5CCC6Cc7nc8c(nc7C[C@@]6(C)C5C[C@H](O)[C@@]4(C)[C@]13O)CC1CCc3c(cc4c5c3C(O)C[C@H]5[C@@H](C)C3(O4)OC(C)(C)CC3O)[C@]1(C)C8)O[C@@](C)(CO)C[C@@H]2O` (stereo partly specified), for which the GI50 is 0.167 µM (active) in assay [17]; 2.3 µM (inactive) in [1]; 1.29 µM (inactive) in assay [2]; 0.23 µM (active) in [4]; 0.187 µM (active) in assay [7]; 1.3 µM (inactive) in assay [8]. The GI50 in assay [18] is 0.06 µM (active); in assay [9], 0.191 µM (active); in assay [10], 0.0182 µM (active); in assay [11] it was 1.32 µM (inactive); in assay [12], 0.126 µM (active); in assay [13], 0.173 µM (active). Moreover, the GI50 is 1.38 µM (inactive) in assay [14]; 0.49 µM (active) in assay [19]; 0.0604 µM (active) in assay [20]; 0.191 µM (active) in [15]; 0.169 µM (active) in assay [16].

Consider `COC1=CC(C2c3cc4c(cc3[C@@H](Nc3ccc([N+](=O)[O-])cc3)C3COC(=O)[C@H]23)OCO4)=CC(=O)C1=O` (stereo partly specified), for which the GI50 in assay [17] is 0.923 µM (active); in assay [1] it was 2 µM (inactive); in assay [2] it was 4.53 µM (inactive); in assay [3], 59.3 µM (inactive); in assay [4], 2.15 µM (inactive); in [5] it was 1.64 µM (inactive). In addition, the GI50 was 0.217 µM (active) in assay [6]; 2.48 µM (inactive) in assay [7]; 16.1 µM (inactive) in [8]; 2.09 µM (inactive) in [18]; 2.53 µM (inactive) in assay [9]; 1.54 µM (inactive) in [10]. In addition, the GI50 was 14.2 µM (inactive) in [11]; 0.277 µM (active) in assay [12]; 1.82 µM (inactive) in assay [13]; 3.07 µM (inactive) in [14]; 5.31 µM (inactive) in assay [19]; 2.43 µM (inactive) in [20]. For the same compound, the GI50 in assay [15] was 0.982 µM (active); in assay [16], 2.18 µM (inactive).

Turning to `Nc1ccn(C2OC(CO)C(O)C2O)c(=O)c1` (stereo unspecified), the GI50 is 179 µM (inactive) in assay [17]; 108 µM (inactive) in assay [1]; > 625 µM (inactive) in assay [2]; 285 µM (inactive) in assay [3]; 143 µM (inactive) in [4]; > 625 µM (inactive) in [5]. The GI50 was > 625 µM (inactive) in assay [7]; > 625 µM (inactive) in assay [18]; > 625 µM (inactive) in assay [9]; 583 µM (inactive) in assay [10]; > 625 µM (inactive) in assay [11]; 38.7 µM (inactive) in [12]. For the same compound, the GI50 in assay [13] is 186 µM (inactive); in assay [14], > 625 µM (inactive); in [19] it was 610 µM (inactive); in assay [20], 174 µM (inactive); in assay [15] it was 239 µM (inactive); in [16], 337 µM (inactive).
